Data taken from the supplement of paper PMC8967900.

tested on: SEM cells; assay: selective drug sensitivity score (sDSS, relative to normal bone marrow) (sDSS (score)); higher = more potent and effective on the cell line relative to normal bone marrow cells; conditions: 72 h
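Also: ALL cell lines in 384-well plates, five doses spanning 10,000-fold, each plate scaled between vehicle and 100 µmol/L benzalkonium chloride controls, sDSS an adapted area-under-curve metric.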

Going from `C[C@@H]1CN(CC(=O)Nc2ccc3c(c2)Cc2cccc(-c4cc(=O)cc(N5CCOCC5)o4)c2S3)C[C@H](C)O1` (top concentration 25000 nM) to `COc1ccc2[nH]cc(/C=C3\C(=O)Nc4ccc(NC(=O)CCN5CCCCC5)cc43)c2c1` (top concentration 50000 nM), the “selective drug sensitivity score” value falls from 2.22 to 2.18.

First: Cc1nn(C)c(COc2ccc(N3CCN(S(=O)(=O)N(C)C)CC3)cc2)c1-c1cccc2c(CCCOc3cccc4ccccc34)c(C(=O)O)n(CCN3CCOCC3)c12 (top concentration 50000 nM)
Second: C=CCn1c(=O)c2cnc(Nc3ccc(N4CCN(C)CC4)cc3)nc2n1-c1cccc(C(C)(C)O)n1 [AZD1775] (top concentration 10000 nM)
The “selective drug sensitivity score” value of the first is lower: 4.96 for the first, 14.1 for the second.

Compared with `C[C@H](Nc1ncnc2[nH]cnc12)c1cc2ccc(F)cc2nc1-c1ccccn1` [AMG319] (top concentration 1000 nM), `S=C(NCc1ccc2c(c1)OCO2)N1CCN(c2ncnc3c2oc2ccccc23)CC1` [Amuvatinib] (top concentration 10000 nM) is higher in “selective drug sensitivity score” value: -1.42 for the first, 2.26 for the second.

Going from `NC(=O)Nc1cc(-c2cccc(F)c2)sc1C(=O)N[C@H]1CCCNC1` [AZD7762] (top concentration 1000 nM) to `Cc1cc([C@@H](C)Nc2ccccc2C(=O)O)c2nc(N3CCOCC3)cc(=O)n2c1` [AZD-6482] (top concentration 2500 nM), the “selective drug sensitivity score” value falls from 19 to 1.92.

First: CN(C)Cc1c(C(=O)NCCOc2ccc(C(=O)NO)cc2)oc2ccccc12 [Abexinostat] (top concentration 10000 nM)
Second: CC(=O)OC[C@H]1O[C@@H]([S-])[C@H](OC(C)=O)[C@@H](OC(C)=O)[C@@H]1OC(C)=O.CCP(CC)CC.[Au+] [Auranofin] (top concentration 2500 nM)
The “selective drug sensitivity score” value of the first is higher: 5.46 for the first, 1.34 for the second.

tested on: SUP-B15; assay: as above; conditions: 72 h

First: Cc1c(-c2ccc(N3CCc4cccc(C(=O)Nc5nc6ccccc6s5)c4C3)nc2C(=O)O)cnn1CC12CC3CC(CC(C3)C1)C2 (top concentration 1000 nM)
Second: CNC(=O)c1ccccc1Nc1nc(Nc2ccc3c(c2OC)CCC[C@H](N2CCN(CCO)CC2)C3)ncc1Cl (top concentration 5000 nM)
The “selective drug sensitivity score” value of the first is higher: 9.34 for the first, 3.96 for the second.

First: O=C(NOC[C@H](O)CO)c1ccc(F)c(F)c1Nc1ccc(I)cc1F (top concentration 1000 nM)
Second: NC(=O)Nc1cc(-c2cccc(F)c2)sc1C(=O)N[C@H]1CCCNC1 [AZD7762] (top concentration 1000 nM)
The “selective drug sensitivity score” value of the first is higher: 13.5 for the first, -0.4 for the second.

First: CO[C@@H](C)Cn1c(=O)n(C)c2cnc3ccc(-c4cncc(C(C)(C)O)c4)cc3c21 (top concentration 2500 nM)
Second: C[C@@H](Oc1cc(-n2cnc3ccc(CN4CCN(C)CC4)cc32)sc1C(N)=O)c1ccccc1C(F)(F)F (top concentration 10000 nM)
The “selective drug sensitivity score” value of the first is lower: 6.98 for the first, 27.2 for the second.

Compared with `Cc1cccc(CC(=O)N2CCc3c2ccc(-c2cn(C)c4ncnc(N)c24)c3F)n1` (top concentration 2500 nM), `C=CCn1c(=O)c2cnc(Nc3ccc(N4CCN(C)CC4)cc3)nc2n1-c1cccc(C(C)(C)O)n1` [AZD1775] (top concentration 10000 nM) is higher in “selective drug sensitivity score” value: 7.22 for the first, 14.7 for the second.

Going from `COc1cc2ncnc(Oc3cccc(NC(=O)Nc4cc(C(C)(C)C(F)(F)F)on4)c3)c2cc1OC` (top concentration 10000 nM) to `C[C@H](Nc1ncnc2[nH]cnc12)c1cc2ccc(F)cc2nc1-c1ccccn1` [AMG319] (top concentration 1000 nM), the “selective drug sensitivity score” value falls from 28.4 to 0.48.

Compared with `Nc1nccc(-c2c(-c3ccc(F)cc3)ncn2C2CCCCC2)n1` (top concentration 10000 nM), `O=C(O)c1ccc(-c2c[nH]c3ncc(-c4ccccc4)cc23)cc1C1CCCC1` (top concentration 10000 nM) is lower in “selective drug sensitivity score” value: 2.4 for the first, -1.44 for the second.

Going from `C[C@@H]1CN(CC(=O)Nc2ccc3c(c2)Cc2cccc(-c4cc(=O)cc(N5CCOCC5)o4)c2S3)C[C@H](C)O1` (top concentration 25000 nM) to `COc1ccc2[nH]cc(/C=C3\C(=O)Nc4ccc(NC(=O)CCN5CCCCC5)cc43)c2c1` (top concentration 50000 nM), the “selective drug sensitivity score” value rises from -0.58 to 2.48.

First: Cc1nn(C)c(COc2ccc(N3CCN(S(=O)(=O)N(C)C)CC3)cc2)c1-c1cccc2c(CCCOc3cccc4ccccc34)c(C(=O)O)n(CCN3CCOCC3)c12 (top concentration 50000 nM)
Second: Cc1cc([C@@H](C)Nc2ccccc2C(=O)O)c2nc(N3CCOCC3)cc(=O)n2c1 [AZD-6482] (top concentration 2500 nM)
The “selective drug sensitivity score” value of the first is higher: 8.16 for the first, 2.22 for the second.

Compared with `CN(C)Cc1c(C(=O)NCCOc2ccc(C(=O)NO)cc2)oc2ccccc12` [Abexinostat] (top concentration 10000 nM), `S=C(NCc1ccc2c(c1)OCO2)N1CCN(c2ncnc3c2oc2ccccc23)CC1` [Amuvatinib] (top concentration 10000 nM) is lower in “selective drug sensitivity score” value: 6.26 for the first, 5.46 for the second.

With `CC(=O)OC[C@H]1O[C@@H]([S-])[C@H](OC(C)=O)[C@@H](OC(C)=O)[C@@H]1OC(C)=O.CCP(CC)CC.[Au+]` [Auranofin] (top concentration 2500 nM) the “selective drug sensitivity score” value was 12.6.

tested on: TANOUE; assay: as above; conditions: 72 h

First: Cc1c(-c2ccc(N3CCc4cccc(C(=O)Nc5nc6ccccc6s5)c4C3)nc2C(=O)O)cnn1CC12CC3CC(CC(C3)C1)C2 (top concentration 1000 nM)
Second: CNC(=O)c1ccccc1Nc1nc(Nc2ccc3c(c2OC)CCC[C@H](N2CCN(CCO)CC2)C3)ncc1Cl (top concentration 5000 nM)
The “selective drug sensitivity score” value of the first is higher: -2.26 for the first, -5.34 for the second.

First: O=C(NOC[C@H](O)CO)c1ccc(F)c(F)c1Nc1ccc(I)cc1F (top concentration 1000 nM)
Second: NC(=O)Nc1cc(-c2cccc(F)c2)sc1C(=O)N[C@H]1CCCNC1 [AZD7762] (top concentration 1000 nM)
The “selective drug sensitivity score” value of the first is higher: -2.46 for the first, -5 for the second.

First: CO[C@@H](C)Cn1c(=O)n(C)c2cnc3ccc(-c4cncc(C(C)(C)O)c4)cc3c21 (top concentration 2500 nM)
Second: C[C@@H](Oc1cc(-n2cnc3ccc(CN4CCN(C)CC4)cc32)sc1C(N)=O)c1ccccc1C(F)(F)F (top concentration 10000 nM)
The “selective drug sensitivity score” value of the first is higher: -5.12 for the first, -11.2 for the second.

Going from `Cc1cccc(CC(=O)N2CCc3c2ccc(-c2cn(C)c4ncnc(N)c24)c3F)n1` (top concentration 2500 nM) to `C=CCn1c(=O)c2cnc(Nc3ccc(N4CCN(C)CC4)cc3)nc2n1-c1cccc(C(C)(C)O)n1` [AZD1775] (top concentration 10000 nM), the “selective drug sensitivity score” value falls from 2.52 to -1.66.

Going from `COc1cc2ncnc(Oc3cccc(NC(=O)Nc4cc(C(C)(C)C(F)(F)F)on4)c3)c2cc1OC` (top concentration 10000 nM) to `C[C@H](Nc1ncnc2[nH]cnc12)c1cc2ccc(F)cc2nc1-c1ccccn1` [AMG319] (top concentration 1000 nM), the “selective drug sensitivity score” value falls from 0 to -0.12.

First: Nc1nccc(-c2c(-c3ccc(F)cc3)ncn2C2CCCCC2)n1 (top concentration 10000 nM)
Second: O=C(O)c1ccc(-c2c[nH]c3ncc(-c4ccccc4)cc23)cc1C1CCCC1 (top concentration 10000 nM)
The “selective drug sensitivity score” value of the first is higher: 0 for the first, -1.44 for the second.

Going from `C[C@@H]1CN(CC(=O)Nc2ccc3c(c2)Cc2cccc(-c4cc(=O)cc(N5CCOCC5)o4)c2S3)C[C@H](C)O1` (top concentration 25000 nM) to `COc1ccc2[nH]cc(/C=C3\C(=O)Nc4ccc(NC(=O)CCN5CCCCC5)cc43)c2c1` (top concentration 50000 nM), the “selective drug sensitivity score” value falls from -2.18 to -2.22.

Going from `Cc1nn(C)c(COc2ccc(N3CCN(S(=O)(=O)N(C)C)CC3)cc2)c1-c1cccc2c(CCCOc3cccc4ccccc34)c(C(=O)O)n(CCN3CCOCC3)c12` (top concentration 50000 nM) to `Cc1cc([C@@H](C)Nc2ccccc2C(=O)O)c2nc(N3CCOCC3)cc(=O)n2c1` [AZD-6482] (top concentration 2500 nM), the “selective drug sensitivity score” value falls from 2.56 to 0.02.

Compared with `CN(C)Cc1c(C(=O)NCCOc2ccc(C(=O)NO)cc2)oc2ccccc12` [Abexinostat] (top concentration 10000 nM), `S=C(NCc1ccc2c(c1)OCO2)N1CCN(c2ncnc3c2oc2ccccc23)CC1` [Amuvatinib] (top concentration 10000 nM) is higher in “selective drug sensitivity score” value: -7.54 for the first, 6.16 for the second.

In the case of `CC(=O)OC[C@H]1O[C@@H]([S-])[C@H](OC(C)=O)[C@@H](OC(C)=O)[C@@H]1OC(C)=O.CCP(CC)CC.[Au+]` [Auranofin] (top concentration 2500 nM), the “selective drug sensitivity score” value is reported as -1.06.
